Assay results: US20180346505A1, “MONONUCLEOTIDES HAVING A BIOREVERSIBLE DISULFIDE GROUP” (priority 2014, published 2018)

What was measured:
[1] = test system: GT1b/5a NS5B chimeric replicon; experiment: HCV replicon assay, GT1b/5a NS5B chimeric replicon, transient transfection; format: cell-based, hepatitis C virus; conditions: Hepatitis C virus, Huh-7, 72 h, read-out: GT5a EC50, GT1b/5a NS5B chimeric replicon, Huh-7 cells, luciferase, 72 hours
Method: (§1) The antiviral activity of the test compounds was assessed in the wild type GT1b (Con1), GT1a (H77), and GT1b/2a, GT1b/3a, GT1b/4a and GT1b/5a NS5B chimeric replicons, as well as the NS5B mutant replicons listed in Table 2a and 2b.
To generate HCV NS5B chimeric replicons, the GT1 b replicon was used as a backbone with the NS5B gene replaced with the NS5B gene of GT2a, GT3a, GT4a and GT5a derived from clinical isolates. These NS5B genes were cloned into the GT1b backbone and were confirmed by sequencing.
(§2) All the replicon assays were luciferase based in Huh-7 cells, either in stable format (GT1b and GT1a) or by transient transfection by electroporation (chimeric and mutant replicons). For a standard HCV replicon assay, stable or transiently transfected Huh-7 cells were seeded in 96-well plates (5,000 cells/well), cultured in DMEM containing 10% FBS, and incubated at 37° C., 5% CO2. On the following day, test compounds were diluted with assay media and added to the appropriate wells (final DMSO concentration in the cell culture medium was 0.5%). Assay reference positive control was included in each run to ensure assay performance. Cells were incubated at 37° C., 5% CO2 for 72 hours, at which time the cells were still sub-confluent. The antiviral activity was determined by measuring replicon reporter firefly luciferase activity using Bright Glo kit in accordance with the protocol provided by the supplier (Promega). The toxicity of the test compounds was assessed by CytoTox-1 cell proliferation assay (Promega). The half maximal effective concentration (EC50) and the half maximal toxic concentration (TC50) values were calculated using the GraphPad Prism software.

[2] = test system: GT1b S282T NS5B mutant replicon; experiment: HCV NS5B mutant replicon assay, GT1b S282T; format: cell-based; conditions: Hepatitis C virus, Huh-7, 72 h, read-out: GT1b S282T EC50
Method: as §1
(§3) The HCV replicon mutants were generated by site-directed mutagenesis (SDM). The SDM was performed by PCR and the PCR fragments were inserted into the backbone replicon construct. The inserted PCR fragments and the mutants were confirmed by sequencing.
as §2

[3] = Nucleoside phosphoester stability in simulated intestinal fluid; format: in vitro ADME
Method: Test compounds at 2 μM were incubated at 37° C. with simulated intestinal fluid (SIF), which contains 0.68% (w/v) monobasic potassium phosphate and 1% (w/v) pancreatin in ultra-pure water (pH 6.8). Duplicate samples were used. Samples were removed at 0, 15, 30, 60, 120, 360 and 1440 min, immediately mixed with cold acetonitrile containing an internal standard (IS), and stored at −80° C. before analysis. Chlorambucil was used as a positive control. Samples were analyzed by a LC/MS/MS method, and disappearance of test compound was assessed by comparison of peak area ratios of analyte/IS and reported as % test compound remaining at each time point.

[4] = Nucleoside phosphoester stability in simulated gastric fluid; format: in vitro ADME; conditions: simulated gastric fluid pH 1.2, 2 μM, 37° C.
Method: Test compounds at 2 μM were incubated at 37° C. with simulated gastric fluid (SGF, 0.2% (w/v) sodium chloride in 0.7% (v/v) hydrochloric acid, deionized water, 0.3% pepsin (w/v), pH 1.2). Duplicate samples were used. Samples were removed at 0, 15, 30, 60, 120, 360 and 1440 min, immediately mixed with cold acetonitrile containing internal standard (IS), and stored at −80° C. before analysis. Omeprazole was used as a positive control. Samples were analyzed by LC/MS/MS method, and disappearance of test compound was assessed by comparison of peak area ratios of analyte/IS and reported as % test compound remaining at each time point.

[5] = test system: GT1a S282T NS5B mutant replicon; experiment: HCV NS5B mutant replicon assay, GT1a S282T; format: cell-based; conditions: Hepatitis C virus, Huh-7, 72 h, read-out: GT1a S282T EC50
Method: as §1, §3, §2

Compound	EC50 [1] [nM]	EC50 [2] [nM]	% Remaining ([4]; 0 min) [%]	% Remaining ([4]; 15 min) [%]	% Remaining ([4]; 30 min) [%]	% Remaining ([4]; 60 min) [%]	% Remaining ([4]; 120 min) [%]	% Remaining ([4]; 360 min) [%]	% Remaining ([4]; 1440 min) [%]	EC50 [5] [nM]	further results
CC(C)OC(=O)[C@H](C)N[P@](=O)(OC[C@H]1O[C@@H](n2ccc(=O)[nH]c2=O)[C@](C)(F)[C@@H]1O)Oc1ccccc1 [sofosbuvir, reference compound]	65	446 to 554	100.00	93.47	99.50	99.63	95.33	87.35	61.36	194 to 694	% Remaining ([3]; simulated intestinal fluid pH 6.8, 2 μM, 37° C., 0 min): 100.00%; % Remaining ([3]; simulated intestinal fluid pH 6.8, 2 μM, 37° C., 15 min): 5.57%; % Remaining ([3]; simulated intestinal fluid pH 6.8, 2 μM, 37° C., 30 min): 0.00%; % Remaining ([3]; simulated intestinal fluid pH 6.8, 2 μM, 37° C., 60 min): 0.00%; % Remaining ([3]; simulated intestinal fluid pH 6.8, 2 μM, 37° C., 120 min): 0.00%; % Remaining ([3]; simulated intestinal fluid pH 6.8, 2 μM, 37° C., 360 min): 0.00%; % Remaining ([3]; simulated intestinal fluid pH 6.8, 2 μM, 37° C., 1440 min): 0.00%
CC(C)(C)SSc1ccccc1CCOP1(=O)OC[C@H]2O[C@@H](n3ccc(=O)[nH]c3=O)[C@](C)(F)[C@@H]2O1 (single isomer, unassigned) [Compound 7A]	8	65	100.00	95.13	99.01	92.49	91.52	91.60	70.36	60	% Remaining ([3]; simulated gi fluid, 0 h, 2 μM, pH 6.8): 100.00%; % Remaining ([3]; simulated gi fluid, 0.25 h, 2 μM, pH 6.8): 102.65%; % Remaining ([3]; simulated gi fluid, 0.5 h, 2 μM, pH 6.8): 104.34%; % Remaining ([3]; simulated gi fluid, 1 h, 2 μM, pH 6.8): 111.04%; % Remaining ([3]; simulated gi fluid, 2 h, 2 μM, pH 6.8): 101.89%; % Remaining ([3]; simulated gi fluid, 6 h, 2 μM, pH 6.8): 121.95%; % Remaining ([3]; simulated gi fluid, 24 h, 2 μM, pH 6.8): 51.70%
